{"source": "patent US11945806B2", "about": "“Stabilization of amyloidogenic immunoglobulin light chains” (The Scripps Research Institute, priority 2019, dated 2024)"}
{"target": "WIL-FL (Homo sapiens, UniProt P01721)", "experiment": "Unlabeled LC Protease Sensitivity Assay (proteinase K)", "assay_type": "biochemical", "details": "small molecule 10 μM, WIL-FL 5 μM, proteinase K 50 nM, 2 hours at 37° C.", "procedure": "Unlabeled LC Protease Sensitivity Assay. WIL-FL (5 μM) in phosphate-buffered saline (PBS, pH 7.4)+0.02% Pluronic F-127 was incubated with proteinase K (50 nM) with small molecule (10 μM) in 1% DMSO vehicle, or vehicle alone. After 2 hours at 37° C., reactions were quenched with 2 mM phenylmethyl sulfonyl fluoride in methanol and centrifuged at 14,000 rpm for 2 minutes. Remaining WIL-FL was quantified by injecting 10 μL of the supernatant into a Waters Acquity H-Class Bio-UPLC (ultra performance liquid chromatography) instrument equipped with a BEH200 analytical size-exclusion column (1.7 μm, 4.6×150 mm) under isocratic conditions (0.2 mL/min, PBS+1 mM EDTA, 2400 psi backpressure, 15 min), monitoring absorbance at 280 nm. Activity of each compound is given as fold protection from protease=(A_compound−A_vehicle)/(A_no_protease−A_vehicle), where each “A” corresponds to peak integration of the respective treatment."}
{"smiles": "CCN(CC)c1ccc2c(C)c(CCOC(=O)NCc3ccccc3)c(=O)oc2c1", "note": "[Compound 78, 2-(7-(diethylamino)-4-methyl-2-oxo-2H-chromen-3-yl)ethyl benzylcarbamate]", "Protection (fold protection of LC from protease)": "A (A < 0.3))"}
{"smiles": "Cc1cc(=O)oc2cc(OC(C)Cc3ccccc3)ccc12", "note": "(stereo not shown) [Compound 47, 4-methyl-7-((1-phenylpropan-2-yl)oxy)-2H-chromen-2-one]", "Protection (fold protection of LC from protease)": "A (A < 0.3))"}
{"smiles": "CCN(CC)c1ccc2c(C)c(CCN3C(=O)NC4(CCN(C(=O)c5ccncn5)CC4)C3=O)c(=O)oc2c1", "note": "[Compound 208, 3-(2-(7-(diethylamino)-4-methyl-2-oxo-2H-chromen-3-yl)ethyl)-8-(pyrimidine-4-carbonyl)-1,3,8-triazaspiro[4.5]decane-2,4-dione]", "Protection (fold protection of LC from protease)": "B (3 ≤ B < 0.6)"}
{"smiles": "CCN(CC)c1ccc2c(C)c(CCOC(=O)NCc3cccnc3)c(=O)oc2c1", "note": "[Compound 89, 2-(7-(diethylamino)-4-methyl-2-oxo-2H-chromen-3-yl)ethyl (pyridin-3-ylmethyl)carbamate]", "Protection (fold protection of LC from protease)": "C (C ≥ 0.6)"}
{"smiles": "CCN(CC)c1ccc2c(CCCOC(=O)NCc3cccc(S(N)(=O)=O)c3)cc(=O)oc2c1", "note": "[Compound 303, 3-(7-(diethylamino)-2-oxo-2H-chromen-4-yl)propyl (3-sulfamoylbenzyl)carbamate]", "Protection (fold protection of LC from protease)": "A (A < 0.3))"}
{"smiles": "CCN(CC)c1ccc2c(C)c(CCOC(=O)NCc3cccc(-c4cc[nH]n4)c3)c(=O)oc2c1", "note": "[Compound 159, 2-(7-(diethylamino)-4-methyl-2-oxo-2H-chromen-3-yl)ethyl (3-(1H-pyrazol-5-yl)benzyl)carbamate]", "Protection (fold protection of LC from protease)": "C (C ≥ 0.6)"}
{"smiles": "Cc1ccccc1C(C)Oc1ccc2c(C)cc(=O)oc2c1", "note": "(stereo not shown) [Compound 45, 4-methyl-7-(1-(o-tolyl)ethoxy)-2H-chromen-2-one]", "Protection (fold protection of LC from protease)": "A (A < 0.3))"}
{"smiles": "Cc1cc(=O)oc2cc(NCCC(F)(F)F)ccc12", "note": "[Compound 265, 4-methyl-7-((3,3,3-trifluoropropyl)amino)-2H-chromen-2-one]", "Protection (fold protection of LC from protease)": "A (A < 0.3))"}
{"smiles": "CCN(CC)c1ccc2c(C)c(CCNC(=O)NCc3cccc4ccccc34)c(=O)oc2c1", "note": "[Compound 285, 1-(2-(7-(diethylamino)-4-methyl-2-oxo-2H-chromen-3-yl)ethyl)-3-(naphthalen-1-ylmethyl)urea]", "Protection (fold protection of LC from protease)": "A (A < 0.3))"}
{"smiles": "Cc1cc(=O)oc2cc(OCCN)ccc12", "note": "[Compound 34, 7-(2-aminoethoxy)-4-methyl-2H-chromen-2-one]", "Protection (fold protection of LC from protease)": "A (A < 0.3))"}
{"smiles": "CCN(CC)c1ccc2c(C)c(CCOC(=O)NCc3cccc(-c4nc[nH]c4C)c3)c(=O)oc2c1", "note": "[Compound 160, 2-(7-(diethylamino)-4-methyl-2-oxo-2H-chromen-3-yl)ethyl (3-(5-methyl-1H-imidazol-4-yl)benzyl)carbamate]", "Protection (fold protection of LC from protease)": "C (C ≥ 0.6)"}
{"smiles": "CCN(CC)c1ccc2c(C)c(CC(=O)NCCN(C)C)c(=O)oc2c1", "note": "[Compound 58, 2-(7-(diethylamino)-4-methyl-2-oxo-2H-chromen-3-yl)-N-(2-(dimethylamino)ethyl)acetamide]", "Protection (fold protection of LC from protease)": "A (A < 0.3))"}
{"smiles": "CCN(Cc1ccccc1)c1ccc2c(C)cc(=O)oc2c1", "note": "[Compound 35, 7-(benzyl(ethyl)amino)-4-methyl-2H-chromen-2-one]", "Protection (fold protection of LC from protease)": "A (A < 0.3))"}
{"smiles": "CCN(CC)c1ccc2c(C)c(CCC(=O)NCCc3ccncc3)c(=O)oc2c1", "note": "[Compound 76]", "Protection (fold protection of LC from protease)": "A (A < 0.3))"}
{"smiles": "CCN(CC)c1ccc2c(C)c(CCOC(=O)NCc3cccc(-c4cncnc4)c3)c(=O)oc2c1", "note": "[Compound 156, 2-(7-(diethylamino)-4-methyl-2-oxo-2H-chromen-3-yl)ethyl (3-(pyrimidin-5-yl)benzyl)carbamate]", "Protection (fold protection of LC from protease)": "B (3 ≤ B < 0.6)"}
{"smiles": "CCC(Oc1ccc2c(C)cc(=O)oc2c1)c1ccccc1", "note": "(stereo not shown) [Compound 41, 4-methyl-7-(1-phenylpropoxy)-2H-chromen-2-one]", "Protection (fold protection of LC from protease)": "A (A < 0.3))"}
